Data as given in patent US9018374B2, “Crystal of amide compound” (Takeda Pharmaceutical Company Limited, priority 2010, dated 2015).
Entries after “also recorded” stand apart in the source; their conditions may differ.

What was measured:
Slurry interconversion = assay type: physicochemical; conditions: for crystal form 1 day later: 20 mg in 0.2 mL isopropyl alcohol, slurry at ambient temperature, powder X-ray diffraction, hydrochloride
Experimental: Type A crystal, type B crystal, and a mixture (1:1) of type A crystal and type B crystal (each 20 mg) were measured in vials, and isopropyl alcohol (0.2 mL) was added to give suspension containing excess solids remaining therein. The vial was sealed, and shaken on a slurry wheel at ambient temperature for 1 day at steady rotation. Thereafter, the solids were collected by filtration.

[1] = Moisture adsorption analysis; assay type: physicochemical; conditions: 25° C., hydrochloride
Experimental: Moisture adsorption of type A crystal and type B crystal was automatically analyzed by VTI Symmetrical Gravimetric Analyzer in step-isothermal mode (SGA-100 for type A crystal, SGA-CX for type B crystal). Samples were exposed various relative humidities (RH) at 25° C. The weight of the samples at each relative humidity was recorded after equilibrium (weight change of less than 0.02% within 10 min).

Dissolution test = conditions: room temperature (25° C.)
Experimental: To type A crystal and type B crystal (each 50 mg) were added 2-butanone, ethyl acetate, toluene, n-heptane and tert-butylmethylether (each 5 mL), and the dissolution property was measured using a powder suspension (25° C., 2 hr). The suspension was centrifuged, the supernatant was filtered with a filter (pore size 0.22 μm), and the solvent was evaporated from the filtrate under a nitrogen atmosphere. The residue obtained by evaporation was dissolved in a mixed solution of 50 mM aqueous ammonium acetate solution/acetonitrile (1:1), and measured by HPLC.

Row | crystal form 1 day later (Slurry interconversion) | thermodynamic stability as compared to type A crystal (from slurry experiment) (Slurry interconversion; ambient temperature) | level (%) of weight change ([1]; relative humidity 30% RH) | level (%) of weight change ([1]; relative humidity 50% RH) | level (%) of weight change ([1]; relative humidity 70% RH) | thermodynamic stability as compared to type A crystal (from dissolution test) (Dissolution test) | SMILES
1 | no change; also recorded: type B | thermodynamically stable | 0.0% | 0.5% | 0.9% | thermodynamically stable | COCCCCn1c(C(=O)N(CC(C)C)[C@@H]2CNC[C@H](C(=O)N3CCOCC3)C2)nc2ccccc21.Cl [type B crystal, 1-(4-methoxybutyl)-N-(2-methylpropyl)-N-[(3S,5R)-5-(morpholin-4-ylcarbonyl)piperidin-3-yl]-1H-benzimidazole-2-carboxamide hydrochloride]
2 | convert to type B crystal | – | −0.1% | 0.0% | 7.6% | – | COCCCCn1c(C(=O)N(CC(C)C)[C@@H]2CNC[C@H](C(=O)N3CCOCC3)C2)nc2ccccc21.Cl [type A crystal, 1-(4-methoxybutyl)-N-(2-methylpropyl)-N-[(3S,5R)-5-(morpholin-4-ylcarbonyl)piperidin-3-yl]-1H-benzimidazole-2-carboxamide hydrochloride, reference compound]
